Source: ChEMBL document CHEMBL5357068, “Discovery of Novel TLR7 Agonists as Systemic Agent for Combination With aPD1 for Use in Immuno-oncology” (ACS Med Chem Lett, 2024)
pEC50, pIC50: −log10 of the molar value. The source made the active and inactive calls. The rule behind the calls is not given here.

Assays:
[1] = Metabolic stability in human liver microsomes assessed as compound remaining; assay type: ADME, Microsome; also: time not given here
[2] = Metabolic stability in mouse liver microsomes assessed as compound remaining; assay type: ADME, Microsome; also: time not given here
[3] = target: Voltage-gated inwardly rectifying potassium channel KCNH2 (Homo sapiens, UniProt Q12809); test: Inhibition of hERG by patch clamp assay; assay type: toxicity
Chain of Voltage-gated inwardly rectifying potassium channel KCNH2 (Q12809 whole entry): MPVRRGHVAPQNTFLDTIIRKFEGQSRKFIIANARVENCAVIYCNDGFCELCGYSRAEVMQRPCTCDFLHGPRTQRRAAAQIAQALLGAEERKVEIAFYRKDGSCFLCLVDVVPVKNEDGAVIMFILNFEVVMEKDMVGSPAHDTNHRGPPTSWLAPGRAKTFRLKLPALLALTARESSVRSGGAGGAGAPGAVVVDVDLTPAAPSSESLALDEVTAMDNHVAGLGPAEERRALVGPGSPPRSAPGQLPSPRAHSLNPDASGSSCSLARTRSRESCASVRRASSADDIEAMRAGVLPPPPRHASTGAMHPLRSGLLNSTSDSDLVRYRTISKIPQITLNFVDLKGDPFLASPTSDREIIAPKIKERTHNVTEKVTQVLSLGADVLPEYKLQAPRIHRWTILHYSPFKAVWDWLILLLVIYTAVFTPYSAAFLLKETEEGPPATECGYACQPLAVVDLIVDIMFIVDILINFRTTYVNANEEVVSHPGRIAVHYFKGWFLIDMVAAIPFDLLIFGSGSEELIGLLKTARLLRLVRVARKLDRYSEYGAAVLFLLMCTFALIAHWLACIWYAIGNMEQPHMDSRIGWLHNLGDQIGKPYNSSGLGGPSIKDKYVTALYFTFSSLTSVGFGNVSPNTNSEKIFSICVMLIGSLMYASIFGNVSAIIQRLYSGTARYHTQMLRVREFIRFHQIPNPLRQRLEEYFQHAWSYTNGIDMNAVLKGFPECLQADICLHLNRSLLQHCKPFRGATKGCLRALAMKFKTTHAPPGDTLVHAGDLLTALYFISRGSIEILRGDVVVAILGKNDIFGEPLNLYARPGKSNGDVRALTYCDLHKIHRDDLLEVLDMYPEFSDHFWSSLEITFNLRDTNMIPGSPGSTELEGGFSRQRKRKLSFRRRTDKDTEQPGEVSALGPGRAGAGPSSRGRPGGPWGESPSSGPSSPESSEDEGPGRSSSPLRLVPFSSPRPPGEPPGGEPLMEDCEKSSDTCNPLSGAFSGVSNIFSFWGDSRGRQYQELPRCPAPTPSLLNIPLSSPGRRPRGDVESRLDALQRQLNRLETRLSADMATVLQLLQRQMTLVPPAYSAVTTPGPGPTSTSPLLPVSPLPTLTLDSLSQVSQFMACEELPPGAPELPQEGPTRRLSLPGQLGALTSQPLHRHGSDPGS

[4] = in vitro; conditions: PHA-activated T cells
[5] = target: T1, Toll-like receptor 7 (Mus musculus, UniProt P58681)
T1 sequence (P58681 whole entry): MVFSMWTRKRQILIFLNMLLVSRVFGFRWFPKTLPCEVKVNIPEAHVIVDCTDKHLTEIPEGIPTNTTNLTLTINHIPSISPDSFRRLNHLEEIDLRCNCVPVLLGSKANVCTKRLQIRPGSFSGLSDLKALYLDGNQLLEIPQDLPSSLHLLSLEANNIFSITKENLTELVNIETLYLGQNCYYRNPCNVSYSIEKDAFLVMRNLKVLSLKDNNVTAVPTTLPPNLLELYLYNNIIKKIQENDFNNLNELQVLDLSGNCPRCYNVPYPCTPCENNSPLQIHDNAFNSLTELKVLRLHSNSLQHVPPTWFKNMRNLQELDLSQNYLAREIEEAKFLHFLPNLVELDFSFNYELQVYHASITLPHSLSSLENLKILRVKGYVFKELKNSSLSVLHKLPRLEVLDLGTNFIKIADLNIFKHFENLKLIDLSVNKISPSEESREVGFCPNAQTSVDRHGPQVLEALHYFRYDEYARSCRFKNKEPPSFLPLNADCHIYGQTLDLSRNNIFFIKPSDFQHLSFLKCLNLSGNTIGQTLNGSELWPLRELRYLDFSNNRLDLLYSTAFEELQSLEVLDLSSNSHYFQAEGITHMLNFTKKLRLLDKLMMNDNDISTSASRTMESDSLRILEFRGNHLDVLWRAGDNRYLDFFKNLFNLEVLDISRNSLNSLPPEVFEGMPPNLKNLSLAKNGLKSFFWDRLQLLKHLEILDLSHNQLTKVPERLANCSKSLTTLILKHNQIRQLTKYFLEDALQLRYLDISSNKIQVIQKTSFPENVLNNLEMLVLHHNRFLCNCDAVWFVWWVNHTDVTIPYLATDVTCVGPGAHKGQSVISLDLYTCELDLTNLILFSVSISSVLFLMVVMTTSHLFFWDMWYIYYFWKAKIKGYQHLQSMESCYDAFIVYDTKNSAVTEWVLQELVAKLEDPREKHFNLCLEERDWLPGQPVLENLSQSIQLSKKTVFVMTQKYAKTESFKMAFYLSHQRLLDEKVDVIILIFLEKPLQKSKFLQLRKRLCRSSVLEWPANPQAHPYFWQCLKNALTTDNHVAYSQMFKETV

[6] = target: T2, Toll-like receptor 8 (Homo sapiens) (UniProt Q9NR97); test: Agonist activity at TLR8 (unknown origin)
T2 sequence (whole entry): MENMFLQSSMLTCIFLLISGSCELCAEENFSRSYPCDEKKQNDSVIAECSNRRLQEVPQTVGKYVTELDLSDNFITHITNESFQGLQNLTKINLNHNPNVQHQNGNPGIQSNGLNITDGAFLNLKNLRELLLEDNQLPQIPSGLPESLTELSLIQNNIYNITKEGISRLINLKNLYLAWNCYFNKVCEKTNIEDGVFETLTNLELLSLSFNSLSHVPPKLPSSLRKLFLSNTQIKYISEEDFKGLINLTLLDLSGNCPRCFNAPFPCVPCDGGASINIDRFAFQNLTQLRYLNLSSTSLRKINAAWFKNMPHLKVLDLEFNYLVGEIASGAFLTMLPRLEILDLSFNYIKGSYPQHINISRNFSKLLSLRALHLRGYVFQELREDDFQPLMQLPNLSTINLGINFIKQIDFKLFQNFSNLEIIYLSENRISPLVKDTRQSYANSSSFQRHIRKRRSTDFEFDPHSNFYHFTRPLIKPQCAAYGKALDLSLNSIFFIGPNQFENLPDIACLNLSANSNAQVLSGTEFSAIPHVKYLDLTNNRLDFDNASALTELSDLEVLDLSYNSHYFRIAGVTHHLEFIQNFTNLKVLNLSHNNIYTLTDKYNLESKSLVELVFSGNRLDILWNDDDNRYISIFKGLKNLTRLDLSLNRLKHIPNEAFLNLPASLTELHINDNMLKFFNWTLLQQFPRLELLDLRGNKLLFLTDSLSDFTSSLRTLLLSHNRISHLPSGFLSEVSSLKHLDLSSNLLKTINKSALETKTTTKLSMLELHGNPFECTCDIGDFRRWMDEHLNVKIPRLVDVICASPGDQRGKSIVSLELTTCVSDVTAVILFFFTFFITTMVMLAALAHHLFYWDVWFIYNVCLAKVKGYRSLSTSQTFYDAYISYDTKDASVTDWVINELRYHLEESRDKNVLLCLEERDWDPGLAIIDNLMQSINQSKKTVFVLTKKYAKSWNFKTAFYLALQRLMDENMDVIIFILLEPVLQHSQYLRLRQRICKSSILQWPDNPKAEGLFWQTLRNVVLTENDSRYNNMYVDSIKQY

[7] = target: T3, Toll-like receptor 7 (Homo sapiens, UniProt Q9NYK1)
T3 sequence (Q9NYK1 whole entry): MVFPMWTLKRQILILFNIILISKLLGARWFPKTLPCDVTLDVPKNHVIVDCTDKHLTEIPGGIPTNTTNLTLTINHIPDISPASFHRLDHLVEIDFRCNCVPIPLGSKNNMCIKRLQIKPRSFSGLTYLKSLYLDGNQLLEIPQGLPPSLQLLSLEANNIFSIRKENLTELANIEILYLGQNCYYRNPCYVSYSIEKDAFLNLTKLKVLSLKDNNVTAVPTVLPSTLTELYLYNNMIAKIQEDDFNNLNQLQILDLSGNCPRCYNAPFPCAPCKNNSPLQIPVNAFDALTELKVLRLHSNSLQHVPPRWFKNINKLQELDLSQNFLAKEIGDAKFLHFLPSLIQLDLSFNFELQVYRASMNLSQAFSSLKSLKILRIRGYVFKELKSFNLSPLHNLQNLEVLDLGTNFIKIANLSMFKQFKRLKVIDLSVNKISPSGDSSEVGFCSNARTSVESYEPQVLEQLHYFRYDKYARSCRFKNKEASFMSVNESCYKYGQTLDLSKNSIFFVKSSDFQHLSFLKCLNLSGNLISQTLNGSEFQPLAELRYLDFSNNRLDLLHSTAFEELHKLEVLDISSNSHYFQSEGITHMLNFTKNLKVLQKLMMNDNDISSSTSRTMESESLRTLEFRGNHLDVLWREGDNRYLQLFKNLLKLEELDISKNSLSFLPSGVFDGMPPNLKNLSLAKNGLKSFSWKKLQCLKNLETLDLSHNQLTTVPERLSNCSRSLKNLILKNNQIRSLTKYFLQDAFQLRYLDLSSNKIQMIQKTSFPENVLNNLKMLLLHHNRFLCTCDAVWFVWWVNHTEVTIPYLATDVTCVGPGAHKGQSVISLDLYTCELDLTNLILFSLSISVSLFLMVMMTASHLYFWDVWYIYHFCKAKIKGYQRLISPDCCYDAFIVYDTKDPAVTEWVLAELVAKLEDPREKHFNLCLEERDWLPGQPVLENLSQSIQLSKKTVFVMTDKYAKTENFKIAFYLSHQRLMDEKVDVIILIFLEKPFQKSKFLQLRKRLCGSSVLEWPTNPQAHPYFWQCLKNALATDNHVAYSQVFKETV

[8] = target: T4, Toll-like receptor 8 (Homo sapiens, UniProt Q9NR97); test: Agonist activity at human TLR8
T4 sequence (Q9NR97 whole entry): T2 sequence (whole entry)

[9] = target: T1, Toll-like receptor 7; test: Agonist activity at mouse TLR7
[10] = target: Cytochrome P450 3A4 (Homo sapiens, UniProt P08684); test: Inhibition of CYP3A4 (unknown origin) using 7-benzyloxy-4-(trifluoromethyl)-coumarin as substrate preincubated with compound followed by substrate addition at 30 mins; assay type: ADME
Chain of Cytochrome P450 3A4 (P08684 whole entry): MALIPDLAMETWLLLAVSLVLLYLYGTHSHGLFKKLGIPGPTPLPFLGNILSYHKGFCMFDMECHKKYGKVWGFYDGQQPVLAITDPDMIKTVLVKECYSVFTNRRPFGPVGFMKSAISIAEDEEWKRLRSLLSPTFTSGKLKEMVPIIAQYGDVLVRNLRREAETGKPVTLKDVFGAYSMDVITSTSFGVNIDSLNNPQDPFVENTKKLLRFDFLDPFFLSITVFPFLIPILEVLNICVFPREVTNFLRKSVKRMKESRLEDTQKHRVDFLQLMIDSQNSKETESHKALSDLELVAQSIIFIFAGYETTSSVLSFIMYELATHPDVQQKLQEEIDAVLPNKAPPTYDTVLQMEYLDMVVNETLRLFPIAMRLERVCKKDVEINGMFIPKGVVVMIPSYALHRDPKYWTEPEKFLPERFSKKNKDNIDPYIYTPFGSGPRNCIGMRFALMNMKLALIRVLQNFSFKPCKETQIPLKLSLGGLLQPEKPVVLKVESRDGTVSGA

Compound | Stability [1] [%] | Stability [2] [%] | pIC50 [4] | pIC50 [3] | also measured
CCCCOc1nc(N)nc2cnn(Cc3ccc(CNC4CCOCC4)cc3OC)c12 |  |  | < 4.60 |  | pIC50 [5]: < 5.30
CCCCNc1nc(N)nc2cnn(Cc3ccc(CN4CCCCC4)cc3OC)c12 | 33 | 2 |  |  | pEC50 [5]: 6.65
CCCCN(C)c1nc(N)nc2cnn(Cc3ccc(CNC4CCOCC4)cc3OC)c12 | 57 | 11 | < 4.60 | < 4.30 | pIC50 [5]: < 5.30
CCCCNc1nc(N)nc2cnn(Cc3ccc(CNC4COC4)cc3OC)c12 | 55 | 46 |  |  | 
CCCCNc1nc(N)nc2cnn(Cc3ccc(CNCc4ccncc4)cc3OC)c12 | 1 | 3 |  |  | 
CCCCNc1nc(N)nc2cnn(Cc3ccc(CNC4CCOCC4)cc3OC)c12 | 68 | 25 | 4.66 |  | pEC50 [5]: 6.34
CCCCNc1nc(N)nc2cnn(Cc3ccc(C(=O)NC4CCOCC4)cc3OC)c12 | 68 | 62 |  |  | 
CCC[C@@H](CCO)Nc1nc(N)nc2cnn(Cc3ccc(CNC4CCOCC4)nc3)c12 | 100 | 91 | < 4.60 | < 4.30 | Activity [6]: inactive; pEC50 [5]: < 5.30
CCCCNc1nc(N)nc2cnn(Cc3ccc(CN4CCNCC4)cc3OC)c12 | 83 | 60 |  |  | 
CCCCNc1nc(N)nc2cnn(Cc3ccc(CN4CC5(CNC5)C4)cc3OC)c12 | 100 | 100 |  |  | 
CCCCNc1nc(N)nc2cnn(Cc3ccc(Cn4ccnc4)cc3OC)c12 | 1 | 26 |  |  | 
CCCCNc1nc(N)nc2cnn(Cc3ccc(CN4CC5CC4CN5)cc3OC)c12 (stereo not given) | 90 | 10 |  |  | 
CCCCNc1nc(N)nc2cnn(Cc3ccccc3OC)c12 |  |  |  |  | pEC50 [7]: 6.42
CCCCNc1nc(N)nc2cnn(Cc3ccc(CN4CCOCC4)cc3OC)c12 | 20 | 15 |  |  | 
CCCCNc1nc(N)nc2ncn(Cc3ccccc3)c12 |  |  |  |  | pEC50 [7]: < 5.30
CCCCNc1nc(N)nc2cnn(Cc3ccc(CNC4CCC4)cc3OC)c12 | 41 | 2 | 4.80 | 4.73 | pEC50 [8]: < 5.30; pEC50 [9]: 6.92; pIC50 [10]: 5.18
COc1cc(CNC2CCOCC2)ccc1Cn1ncc2nc(N)nc(N[C@H](CCO)C3CC3)c21 | 9 | 87 | < 4.60 | < 4.30 | 

Second part, led by results:

Stability [1] [%] | Stability [2] [%] | pIC50 [4] | Compound | pIC50 [3] | also measured
80 | 63 | < 4.60 | COc1cc(CNC2CCOCC2)ccc1Cn1ncc2nc(N)nc(N[C@H](CCO)C(C)C)c21 | < 4.30 | 
83 | 84 | < 4.60 | CC[C@@H](CCO)Nc1nc(N)nc2cnn(Cc3ccc(CNC4CCOCC4)cc3OC)c12 | < 4.30 | pIC50 [5]: 5.90
90 | 77 | < 4.60 | CCC[C@@H](CO)Nc1nc(N)nc2cnn(Cc3ccc(CNC4CCOCC4)cc3OC)c12 | < 4.30 | 
93 | 91 | < 4.60 | CCC[C@@H](CCNC(C)=O)Nc1nc(N)nc2cnn(Cc3ccc(CNC4CCOCC4)cc3OC)c12 |  | 
89 | 100 | < 4.60 | COc1cc(CNC2CCOCC2)ccc1Cn1ncc2nc(N)nc(N[C@@H](C)CCO)c21 | < 4.30 | pIC50 [5]: < 5.30
81 | 87 | < 4.60 | CCC[C@@H](CCO)Nc1nc(N)nc2cnn(Cc3cnc(CNC4CCOCC4)cc3OC)c12 | < 4.30 | 
51 | 55 | 5.15 | CCC[C@@H](CCO)Nc1nc(N)nc2cnn(Cc3ccc(CNC4CCOCC4)cc3OC(F)F)c12 | 4.52 | 
70 | 30 | 4.61 | CCC[C@@H](C)Nc1nc(N)nc2cnn(Cc3ccc(CNC4CCOCC4)cc3OC)c12 | 4.52 | 
 |  | < 4.60 | CCC[C@@H](CCO)Nc1nc(N)nc2cnn(Cc3ccc(CNC4CCOCC4)nc3OC)c12 |  | 
66 | 91 | < 4.60 | CCC[C@@H](CCO)Nc1nc(N)nc2cnn(Cc3ccc(CNC4CCOCC4)cc3F)c12 | < 4.30 | 
78 | 93 | < 4.60 | CCC[C@@H](CCO)Nc1nc(N)nc2cnn(Cc3ncc(CNC4CCOCC4)cc3OC)c12 | 5.22 | 
56 | 56 | < 4.60 | CCC[C@@H](CCO)Nc1nc(N)nc2cnn(Cc3ccc(CNC4CCOCC4)c4cccnc34)c12 | < 4.30 | 
90 | 91 | < 4.60 | CCC[C@@H](CCO)Nc1nc(N)nc2cnn(Cc3ccc(CNC4CCOCC4)cc3)c12 | < 4.30 | pEC50 [5]: < 5.30
